Measured values: patent publication US7816400B2 (The University of Hong Kong, priority 2007, dated 2010)
“Also recorded” adds a separate entry of the source.

What was measured:
human atrial myocytes = test: Action potential in human atrial myocytes, perforated patch, current clamp; assay type: cell-based
From the text: Atrial cells were isolated from specimens of human right atrial appendage obtained from patients (56.1±4.7 years old) undergoing coronary artery bypass grafting. […] All patients were free from supraventricular tachyarrythmias, and the atria were grossly normal at the time of surgery. After excision, the samples were quickly immersed in oxygenated, normally Ca^2+-free cardioplegic solution for transport to the laboratory. Atrial myocytes were enzymatically dissociated as described previously (Tian et al., 2006; Gao et al., 2004). Briefly, the atrial tissue was minced, and gently agitated by continuous bubbling with 100% O2 in a Ca^2+-free Tyrode solution for 15 min (5 min at a time in fresh solutions), and then incubated for 50 min in a similar solution containing 150-200 U/ml collagenase (CLS II, Worthington Biochemical, Freehold, N.J., USA), 0.2 mg/ml protease (type XXIV, Sigma-Aldrich Chemical, St Louis, Mo., USA.) and 1 mg/ml bovine serum albumin (Sigma-Aldrich). After then, the chunks were re-incubated in a fresh enzyme solution of the same composition but no protease. The quantity and quality of isolated cells were monitored under a microscope. When the cell yield appeared optimal, the chunks were suspended in a high K medium containing (mM) 10 KCl, 120 K-glutamate, 10 KH2PO4, 1.8 MgSO4, 10 taurine, 10 HEPES, 0.5 EGTA, 20 glucose, 10 mannitol, pH was adjusted to 7.3 with KOH and gently blown with a pipette. The isolated myocytes were kept at room temperature in the medium at least 1 h before use.
A small aliquot of the solution containing the isolated cells was placed in an open perfusion chamber (1-ml) mounted on the stage of an inverted microscope. Myocytes were allowed to adhere to the bottom of the chamber for 5-10 min and were the superfused at 2-3 ml/min with Tyrode solution. Only quiescent rod-shaped cells with clear cross-striations were used. The studies were conducted at room temperature (21-22° C.) for current recording or 36° C. for action potential recording.
The whole-cell patch-clamp technique was used for electrophysiological recording. Borosilicate glass electrodes (1.2-mm OD) were pulled with a Brown-Flamming puller (model P-97, Sutter Instrument Co, Novato, Calif., USA) and had tip resistances of 2-3 MΩ when filled with pipette solution. […] A 3-M KCl-agar salt bridge was used as reference electrode. The tip potentials were compensated before the pipette touched the cell. After a giga-ohm seal was obtained, the cell membrane was ruptured by gentle suction to establish the whole-cell configuration. […] The series resistance (Rs) was 3-5 MΩ and was compensated by 50-70% to minimize voltage errors. Perforated patch configuration was used for recording action potential in human atrial cells and IKs in HEK 293 cells as described previously (Li et al., 2002b; Dong et al., 2006). Current signals were low-pass filtered at 5 kHz and stored on the hard disk of an IBM compatible computer.

INa = INa in guinea pig ventricular myocytes; assay type: cell-based; settings: 30 and 100 μM
Procedure: (§1) Guinea pigs of either gender (250-300 g) were sacrificed by cervical dislocation after anesthetization with pentobarbital (40 mg kg, i.p.). The procedure related to the use of animals in this invention was approved by the Animal Care and Use Committee for Teaching and Research of University of Hong Kong in accordance with the Guide for the Care and Use of Laboratory Animals (Institute of Laboratory Animal Resources, Commission on Life Sciences, National Research Council, 1996). Left atrial and ventricular myocytes from guinea pig hearts were enzymatically dissociated by the procedure described previously (Li et al., 2002a) and the isolated myocytes were kept in the K^+ storage medium.
(§2) The Ca^2+-free cardioplegic solution for specimen transport contained (in mM) 50 KH2PO4, 8 MgSO4, 5 adenosine, 10 HEPES, 140 glucose, 100 mannitol, 10 taurine, pH was adjusted to 7.3 with KOH. Tyrode solution contained (in mM) 140 NaCl, 5.4 KCl, 1 MgCl2, 1 CaCl2, 0.33 NaH2PO4, 10 HEPES, 10 glucose, pH was adjusted to 7.4 with NaOH. […] INa was recorded under conditions of K^+-free and a symmetrical Na^+ (5 mM) in pipette and superfusion solutions as described previously (Li at al., 2002a).
(§3) The whole-cell patch-clamp technique was used for electrophysiological recording. […] Membrane currents were recorded in voltage-clamp mode using an EPC-9 amplifier and Pulse software (HEKA, Lambrecht, Germany). […]

ICa.L = ICa.L in guinea pig ventricular myocytes; assay type: cell-based; settings: 30 and 100 μM
Procedure: as §1, §2, §3

Kunmin mice = test: Acute toxicity in mice; assay type: in vivo; settings: oral, two-week observation
From the text: The animals were observed closely with a two-week duration for death number and activity.

COc1ccc(-c2cc(=O)c3c(O)cc(O)cc3o2)cc1 [Acacetin, 5,7-dihydroxy-4′-methoxyflavone]
rate dependence of APD prolongation, in words (human atrial myocytes; 10 μM, 0.5 Hz vs 2 Hz): slight rate-dependent increase; also recorded: slight rate-dependent prolongation | action potential duration (APD50, APD75, APD90), in words (human atrial myocytes; 5 and 10 μM, 0.5, 1.0, 2.0 Hz, 36° C.): significantly prolonged | resting membrane potential and amplitude of action potential, in words (human atrial myocytes; 5 or 10 μM, 2 Hz): without affecting | effect on INa, in words (INa): no effect; also recorded: no inhibition | effect on INa, in words (INa; listed as acacetin): no effects | effect on ICa.L, in words (ICa.L): no effect; also recorded: no inhibition | effect on ICa.L, in words (ICa.L; listed as acacetin): no effects | abnormal activity compared to vehicle-control animals (Kunmin mice; 0.3 g/kg three times): no abnormal activity | animal death (Kunmin mice; 900 mg/kg (0.3 g/kg three times at intervals of 1.5 h), 900 mg/kg): no animal death
